The conditions of data set [1]: 298.2 K; 101.33 kPa; Liquid; Kyoto 210 Density Meter.
Data set [2] in a line: refractive index (Na D-line) (dimensionless). As to conditions: 298.2 K; 101.33 kPa; Liquid; Standard Abbe refractometry.

This passage reports mass density and refractive index results from the NIST ThermoML archive (doi:10.1016/j.jct.2012.01.003).

SMILES strings stand for the structures. ± gives the expanded uncertainty stated by the source.

For orientation: mass density means the mass of a sample divided by its volume. The term refractive index denotes a measure of how strongly the sample bends light.

As to `CCC(C)O` (stereo unspecified) [butan-2-ol], in data set [1], the mass density came to 802.34 ± 0.23 kg/m3. In addition, the refractive index in data set [2] came to 1.3949 ± 0.0004.

For the compound `CCCCCCCCCCO` [decan-1-ol], the mass density in data set [1] is listed as 826.86 ± 0.24 kg/m3. Besides, in data set [2], the refractive index is on record as 1.4344 ± 0.0004.

With `CCCCCCCO` [heptan-1-ol], in data set [1], the mass density stood at 818.83 ± 0.24 kg/m3. The refractive index in data set [2] is given as 1.4224 ± 0.0004. As for `CCCCCCO` [hexan-1-ol], the mass density in data set [1] is reported as 815.21 ± 0.24 kg/m3. In addition, the refractive index in data set [2] was 1.4155 ± 0.0004.

For the compound `CCCCCCCCO` [octan-1-ol], in data set [1], the mass density amounted to 825.1 ± 0.24 kg/m3. The refractive index in data set [2] is 1.427 ± 0.0004. On to `O` [water], for which the refractive index in data set [2] is 1.3324 ± 0.0004.
